Laboratory results reported in ChEMBL document CHEMBL3046656, “Apoptotic effects of some carbazole derivatives on lung carcinoma and glioma cell lines” (Med Chem Res, 2013).
Values after ≈ are worked out from the molar mass of the structure shown. Active and inactive are the calls of the source. The rule behind the calls is not given here.

How the values were obtained:
NIH3T3 = test: Cytotoxicity against Mus musculus (mouse) NIH/3T3 cells after 24 hr by MTT assay; assay type: cell-based; settings: NIH3T3, 24 h
A549 [1] = test: Inhibition of nuclear DNA synthesis in Homo sapiens (human) A549 cells assessed as decrease in bromodeoxyuridine incorporation measured during S phase after 24 hr by ELISA; assay type: functional, cell-based
A549 [2] = test: Cytotoxicity against Homo sapiens (human) A549 cells after 24 hr by MTT assay; assay type: functional, cell-based; settings: A549, 24 h
Acetylcholinesterase = Acetylcholinesterase (Electrophorus electricus, UniProt O42275); test: Inhibition of Electrophorus electricus (electric eel) AChE using acetylthiocholine iodide as substrate incubated for 15 min prior to substrate addition measured after 30 min by Ellman's spectrophotometric method
[3] = target: Acetylcholinesterase (Electrophorus electricus) (UniProt O42275); test: Inhibition of Electrophorus electricus (electric eel) AChE using acetylthiocholine iodide as substrate at 80 ug/mL incubated for 15 min prior to substrate addition measured after 30 min by Ellman's spectrophotometric method relative to control
C6 [4] = test: Cytotoxicity against Rattus norvegicus (rat) C6 cells after 24 hr by MTT assay; assay type: functional, cell-based; settings: C6, 24 h
C6 [5] = test: Inhibition of nuclear DNA synthesis in Rattus norvegicus (rat) C6 cells assessed as decrease in bromodeoxyuridine incorporation measured during S phase after 24 hr by ELISA; assay type: functional, cell-based
A549 [6] = test: Inhibition of nuclear DNA synthesis in Homo sapiens (human) A549 cells assessed as decrease in bromodeoxyuridine incorporation measured during S phase at 15.6 to 62.5 ug/mL after 24 hr by ELISA; assay type: functional
C6 [7] = test: Induction of apoptosis in Rattus norvegicus (rat) C6 cells assessed as late apoptotic cells at IC50 after 24 hr by annexin V FITC/propidium iodide staining-based FACS flow cytometric analysis (reference value: 1.1%); assay type: functional
A549 [8] = test: Induction of necrosis in Homo sapiens (human) A549 cells at IC50 after 24 hr by annexin V FITC/propidium iodide staining-based FACS flow cytometric analysis relative to untreated control; assay type: functional
C6 [9] = test: Induction of apoptosis in Rattus norvegicus (rat) C6 cells assessed as early apoptotic cells at IC50 after 24 hr by annexin V FITC/propidium iodide staining-based FACS flow cytometric analysis (reference value: 0.5%); assay type: functional
A549 [10] = test: Induction of apoptosis in Homo sapiens (human) A549 cells assessed as viable cells at IC50 after 24 hr by annexin V FITC/propidium iodide staining-based FACS flow cytometric analysis (reference value: 96.5%); assay type: functional
A549 [11] = test: Induction of apoptosis in Homo sapiens (human) A549 cells assessed as early apoptotic cells at IC50 after 24 hr by annexin V FITC/propidium iodide staining-based FACS flow cytometric analysis (reference value: 0.5%); assay type: functional
A549 [12] = test: Induction of apoptosis in Homo sapiens (human) A549 cells assessed as late apoptotic cells at IC50 after 24 hr by annexin V FITC/propidium iodide staining-based FACS flow cytometric analysis (reference value: 0.4%); assay type: functional
C6 [13] = test: Induction of apoptosis in Rattus norvegicus (rat) C6 cells assessed as viable cells at IC50 after 24 hr by annexin V FITC/propidium iodide staining-based FACS flow cytometric analysis (reference value: 96.4%); assay type: functional
C6 [14] = test: Induction of necrosis in Rattus norvegicus (rat) C6 cells at IC50 after 24 hr by annexin V FITC/propidium iodide staining-based FACS flow cytometric analysis relative to untreated control; assay type: functional
C6 [15] = test: Inhibition of nuclear DNA synthesis in Rattus norvegicus (rat) C6 cells assessed as decrease in bromodeoxyuridine incorporation measured during S phase at 15.6 to 31.2 ug/mL after 24 hr by ELISA; assay type: functional
C6 [16] = test: Inhibition of nuclear DNA synthesis in Rattus norvegicus (rat) C6 cells assessed as decrease in bromodeoxyuridine incorporation measured during S phase at 3.9 to 7.8 ug/mL after 24 hr by ELISA; assay type: functional
A549 [17] = test: Inhibition of nuclear DNA synthesis in Homo sapiens (human) A549 cells assessed as decrease in bromodeoxyuridine incorporation measured during S phase at IC50 after 24 hr by ELISA; assay type: functional
C6 [18] = test: Inhibition of nuclear DNA synthesis in Rattus norvegicus (rat) C6 cells assessed as decrease in bromodeoxyuridine incorporation measured during S phase at IC50 after 24 hr by ELISA; assay type: functional

Sequence of Acetylcholinesterase (O42275 whole entry): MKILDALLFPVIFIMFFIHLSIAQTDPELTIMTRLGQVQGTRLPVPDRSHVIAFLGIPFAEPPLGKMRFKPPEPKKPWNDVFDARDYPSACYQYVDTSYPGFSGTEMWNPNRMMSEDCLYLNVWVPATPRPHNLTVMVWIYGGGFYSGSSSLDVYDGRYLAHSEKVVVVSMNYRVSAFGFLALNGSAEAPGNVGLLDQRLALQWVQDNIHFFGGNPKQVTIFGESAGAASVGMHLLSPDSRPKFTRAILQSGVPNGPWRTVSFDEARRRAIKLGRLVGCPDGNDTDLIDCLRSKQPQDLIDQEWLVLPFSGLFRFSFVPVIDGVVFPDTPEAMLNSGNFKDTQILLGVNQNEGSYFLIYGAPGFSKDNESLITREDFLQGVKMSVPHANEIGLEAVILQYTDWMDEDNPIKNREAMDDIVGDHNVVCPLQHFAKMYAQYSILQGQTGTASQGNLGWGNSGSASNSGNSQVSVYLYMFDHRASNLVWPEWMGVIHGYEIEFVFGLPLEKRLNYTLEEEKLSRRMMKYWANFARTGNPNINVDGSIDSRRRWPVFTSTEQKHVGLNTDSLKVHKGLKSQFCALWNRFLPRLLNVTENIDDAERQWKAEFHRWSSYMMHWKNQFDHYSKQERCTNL
Sequence of Acetylcholinesterase (Electrophorus electricus) (O42275 24-633 limits assumed): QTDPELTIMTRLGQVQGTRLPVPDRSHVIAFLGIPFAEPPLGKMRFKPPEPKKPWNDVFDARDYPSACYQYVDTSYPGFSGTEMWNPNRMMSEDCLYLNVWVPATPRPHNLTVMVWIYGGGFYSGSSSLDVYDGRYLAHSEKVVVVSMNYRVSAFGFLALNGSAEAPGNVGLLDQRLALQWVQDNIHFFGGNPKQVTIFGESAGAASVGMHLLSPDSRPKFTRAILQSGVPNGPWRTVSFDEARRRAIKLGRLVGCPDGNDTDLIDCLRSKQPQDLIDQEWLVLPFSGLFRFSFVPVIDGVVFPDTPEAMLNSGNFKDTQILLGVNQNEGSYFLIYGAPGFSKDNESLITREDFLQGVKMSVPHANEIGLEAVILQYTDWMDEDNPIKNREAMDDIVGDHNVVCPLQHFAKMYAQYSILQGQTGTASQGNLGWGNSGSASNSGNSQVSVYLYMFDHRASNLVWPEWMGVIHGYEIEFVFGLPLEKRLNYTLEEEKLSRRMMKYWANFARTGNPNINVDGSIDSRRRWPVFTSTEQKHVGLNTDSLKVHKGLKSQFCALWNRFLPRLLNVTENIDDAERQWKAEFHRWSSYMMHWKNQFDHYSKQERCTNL

| Structure (SMILES) | IC50 (NIH3T3) | inhibition (A549 [1]) | IC50 (A549 [2]) | IC50 (Acetylcholinesterase) | inhibition [3] | IC50 (C6 [4]) | inhibition (C6 [5]) | inhibition (A549 [6]) | also measured |
| --- | --- | --- | --- | --- | --- | --- | --- | --- | --- |
| CCN(CC)C(=S)SCC(=O)Nc1ccc2c(c1)c1ccccc1n2CC | 390 µg/mL (≈ 976 µM) | Dose-dependent effect | 41.7 µg/mL (≈ 104 µM) | > 200 µM | 18.3% | 64.3 µg/mL (≈ 161 µM) | Dose-dependent effect | Active | – |
| CCn1c2ccccc2c2cc(NC(=O)CSC(=S)N3CCN(c4ccccc4)CC3)ccc21 | 357 µg/mL (≈ 730 µM) | Dose-dependent effect | 193 µg/mL (≈ 395 µM) | > 164 µM | 26.6% | 143 µg/mL (≈ 293 µM) | Dose-dependent effect | Active | – |
| CCn1c2ccccc2c2cc(NC(=O)CSC(=S)N3CCN(C)CC3)ccc21 | 48.7 µg/mL (≈ 114 µM) | Dose-dependent effect | 34.3 µg/mL (≈ 80.4 µM) | > 188 µM | 21.1% | 21.3 µg/mL (≈ 49.9 µM) | Dose-dependent effect | – | Activity (C6 [7]): 8.8%; Activity (A549 [8]): 3.3%; Activity (C6 [9]): 7.3%; Activity (A549 [10]): 94.5%; Activity (A549 [11]): 1.8%; Activity (A549 [12]): 0.4%; Activity (C6 [13]): 82.3%; Activity (C6 [14]): 0%; inhibition (INH) (A549 [6]): 46.6%; inhibition (INH) (C6 [15]): 45.5% |
| CCn1c2ccccc2c2cc(NC(=O)CSC(=S)N3CCN(CCN(C)C)CC3)ccc21 | 44.3 µg/mL (≈ 91.6 µM) | Dose-dependent effect | 41 µg/mL (≈ 84.8 µM) | 15.5 µM | 91.3% | 5.9 µg/mL (≈ 12.2 µM) | Dose-dependent effect | – | Activity (C6 [7]): 11.5%; Activity (A549 [8]): 16.6%; Activity (C6 [9]): 83.7%; Activity (A549 [10]): 65%; Activity (A549 [11]): 10.3%; inhibition (INH) (C6 [16]): 87.1%; Activity (A549 [12]): 8.1%; Activity (C6 [13]): 4.7%; Activity (C6 [14]): 0.2%; inhibition (INH) (A549 [6]): 53.4% |
| O=C1c2c(O)ccc(O)c2C(=O)c2c(NCCNCCO)ccc(NCCNCCO)c21 [MITOXANTRONE] | – | Dose-dependent effect | 25.3 µg/mL (≈ 56.9 µM) | – | – | 10.9 µg/mL (≈ 24.5 µM) | Dose-dependent effect | – | inhibition (INH) (A549 [17]): 67.3%; inhibition (INH) (C6 [18]): 84.6% |
| CCn1c2ccccc2c2cc(NC(=O)CSC(=S)N3CCOCC3)ccc21 | 127 µg/mL (≈ 306 µM) | Dose-dependent effect | 25.7 µg/mL (≈ 62.1 µM) | > 193 µM | 15.4% | 180 µg/mL (≈ 435 µM) | Dose-dependent effect | Active | – |
| CCn1c2ccccc2c2cc(NC(=O)CSC(=S)N3CCC(C)CC3)ccc21 | > 500 µg/mL | Dose-dependent effect | 313 µg/mL (≈ 736 µM) | > 188 µM | 23.6% | 167 µg/mL (≈ 392 µM) | Dose-dependent effect | Active | – |
| CCn1c2ccccc2c2cc(NC(=O)CSC(=S)N3CCCC3)ccc21 | 270 µg/mL (≈ 679 µM) | Dose-dependent effect | 193 µg/mL (≈ 486 µM) | > 201 µM | 9.05% | 75 µg/mL (≈ 189 µM) | Dose-dependent effect | Active | – |
| CCn1c2ccccc2c2cc(NC(=O)CSC(=S)N3CCCCC3)ccc21 | 393 µg/mL (≈ 956 µM) | Dose-dependent effect | 177 µg/mL (≈ 429 µM) | > 194 µM | 11.3% | 198 µg/mL (≈ 482 µM) | Dose-dependent effect | Active | – |
| CCn1c2ccccc2c2cc(NC(=O)CSC(=S)N3CCCCC3C)ccc21 (stereo unspecified) | 257 µg/mL (≈ 603 µM) | Dose-dependent effect | 29.3 µg/mL (≈ 68.8 µM) | > 188 µM | 18% | 26.7 µg/mL (≈ 62.7 µM) | Dose-dependent effect | – | Activity (C6 [7]): 5.1%; Activity (A549 [8]): 2.9%; Activity (C6 [9]): 6.2%; Activity (A549 [10]): 93.3%; Activity (A549 [11]): 2.8%; Activity (A549 [12]): 1%; Activity (C6 [13]): 88.3%; Activity (C6 [14]): 0.3%; inhibition (INH) (A549 [6]): 71.2%; inhibition (INH) (C6 [15]): 48.3% |
| CCn1c2ccccc2c2cc(NC(=O)CSC(=S)N3CCN(Cc4ccccc4)CC3)ccc21 | 110 µg/mL (≈ 218 µM) | Dose-dependent effect | 107 µg/mL (≈ 212 µM) | > 159 µM | 12.8% | 170 µg/mL (≈ 338 µM) | Dose-dependent effect | Active | – |
| CCN1CCN(C(=S)SCC(=O)Nc2ccc3c(c2)c2ccccc2n3CC)CC1 | < 3.9 µg/mL | Dose-dependent effect | 61.7 µg/mL (≈ 140 µM) | > 182 µM | 19.6% | 20 µg/mL (≈ 45.4 µM) | Dose-dependent effect | Active | – |
